# Reference: US7087552B2, “Modification of floral scent in flowering plants” (Ball Horticultural Company, priority 1999, dated 2006)
# Tests used:
# Cut Snapdragon Flowers [1] = assay: Headspace GC-MS of floral scent emission from cut snapdragon flowers placed in treatment solutions; type: in vivo; details: for Percentage amount of total floral scent emitted compared to the 24-hour period prior to harvest: 5% (w/v) sucrose and/or 0.1 mg/ml benzoic acid
# Experimental: Volatiles emitted from snapdragon flowers were determined by headspace analysis, as described previously (Raguso and […], 1995, Plant Systematics and Evolution 194:55-67). […] (light /dark) temperature cycle. Flowers attached to the plant were enclosed in a polyvinylacetate bag (Reynolds, Inc.) and purified air was pumped over the flower at a flow rate of 250 ml/minute. […] Ionization energy was set at 70 eV. Column temperature programming was: 50° C. for 1 minute, then heated to 240° C. at a rate of 10°/minute. The MS was scanned from 41 to 400 AMU (atomic mass units). Simultaneous collections of ambient volatiles were used as controls. Components were first identified through a computer database containing several thousand mass spectra and confirmed by comparison of retention times and mass spectra of authentic standards. Headspace collection of greenhouse-grown, inflorescence-bearing snapdragons (Maryland True Pink, PanAmerican Seed Company, West Chicago, Ill.) was carried out for 24 hours. The snapdragon inflorescence-bearing stems for this experiment were carefully chosen to have a similar number of same-aged flowers. […] The sucrose level chosen was based upon the conclusions reached by Ichimura and Hisamatsu (1999, Journal for the Japanese Society for Horticultural Science, 68:61-66) that 5% (w/v) sucrose was the optimum sucrose level for maximum vase life of cut snapdragon flowers.
# [2] = test system: hypocotyl cells in light-grown, intact Nicotiana plumbaginifolia seedlings; details: 1 mM (approximately 0.125 mg/ml); cited from earlier work
# [3] = test system: intact root systems of soybean seedlings; details: intact root systems exposed; cited from earlier work
# Potted Snapdragon Plant = assay: Spray application to an intact potted snapdragon plant, headspace floral scent emission
# Experimental: In this experiment, a flowering snapdragon plant was selected and the headspace collected for a single 24-hour period. After this time, the inflorescence-bearing stem was sprayed to the point of runoff with a solution of 1 mg/ml benzoic acid. […] The flowers were allowed to dry and the headspace collected for the next 24 hours. […] However, during this 24-hour period after spray application of benzoic acid, several interesting observations were made.
# IS10a = details: tobacco cells exposed to 200–400 mM; cited from earlier work
# Petunia Cuttings = assay: Headspace GC-MS of methylbenzoate emission from Mitchell petunia cuttings; type: in vivo; details: 5% (w/v) sucrose with or without 0.1 mg/ml benzoic acid
# Experimental: The petunia variety called ‘Mitchell’ is an older, non-commercial (i.e., research use only) cultivar (generally available from academic research institutions) that was previously known to emit floral scent, especially during the evening hours. […] With this identification of floral scent in hand, the uptake experiments carried out in Example 2 on cut snapdragon stems were repeated with inflorescence-bearing Mitchell petunia cuttings.
# Headspace collection was performed on two intact flowers for a 24-hour period prior to harvest to measure the amount of methylbenzoate emitted. This methylbenzoate emission was measured by GC-MS and these values set at 100%. The two inflorescence-bearing stems were harvested and immediately were placed into a vessel containing 5% (w/v) sucrose or a vessel containing 5% (w/v) sucrose supplemented with 0.1 mg/ml benzoic acid. Headspace collection was carried out as described in Example 2 on the cuttings for five 24-hour periods after harvesting. During the fifth 24-hour period, the flowers on both cuttings eventually senesced and collapsed.
# Cut Snapdragon Flowers [4] = assay: Floral scent emission of cut snapdragon flowers after 48 hours at 4° C. in darkness; type: in vivo; details: collected for 5 days at ambient temperature in the light after 48 hours at 4° C. in darkness; 5% (w/v) sucrose with or without 0.1 mg/ml benzoic acid
# Experimental: Inflorescence-bearing snapdragon stems were harvested and incubated in water for 48 hours at 4° C. in darkness (to simulate post-harvest conditions at a commercial grower's facility and during shipping). […] The floral scent emission from the flowers was then collected for 5 days, and the total emission compared between the various treatments.
# spotted cucumber beetle = details: in vivo; cited from earlier work
# H. lineata moths = details: in vivo; cited from earlier work
# [5] = test system: lisianthus inflorescence-bearing stems; details: lisianthus (Eustoma), in vivo, 0.1 mg/ml
# Experimental: (§1) To determine whether other floral scent precursors were taken up through the cut end of stems, and whether these compounds were transported in flowers other than snapdragon, the following experiment was performed.
# [6] = test system: snapdragon inflorescence-bearing stems; details: in vivo, 0.1 mg/ml
# Experimental: as §1
# Snapdragon Petals [7] = assay: Conversion of 14C-labelled floral scent precursor to 14C-methylbenzoate in situ by excised snapdragon petal lobes (headspace, scintillation counting); details: for nanocuries of 14C-methylbenzoate from 14C-phenylalanine: 220 nCi applied
# Experimental: Ten lower lobes of snapdragon flowers (variety Maryland True Pink, PanAmerican Seed Company, West Chicago, Ill.) were excised from the rest of the flower. Two microliters of ^14C-benzoic acid (500 nanocuries, or nCi) were pipetted onto the cut edge of the lower lobes. At this time, the lobes were allowed to sit for 10 minutes to permit uptake of the radiolabeled benzoic acid. The lobes were placed cut edge down on wet filter paper and the headspace collected over the course of the next four hours. The columns which trapped the volatiles were changed at 30, 60, 120 and 240 minutes after the start of incubation and eluted with 3 mls of hexane. The eluate (1.5 mls) was then analyzed in a liquid scintillation counter for the presence and amount of ^14C-methylbenzoate. The identity of ^14C-methylbenzoate was verified by its retention time on a thin-layer chromatography plate. As can be observed below in Table 2a, emission of ^14C-methylbenzoate was first detected within one hour after the start of the incubation period. […] This increase was even more dramatic over the next 2 hours as the amount of methylbenzoate emissions increased over 5-fold (compared to the first 2-hour collections period).
# In additional experiments (see Table 2b below), an essentially identical radiolabeled experiment was performed in which ^14C-phenylalanine (220 nCi) was substituted for ^14C-benzoic acid as the radiolabeled floral scent precursor. As was observed previously with ^14C-benzoic acid, the ^14C-phenylalanine was rapidly converted to ^14C-methylbenzoate. Within just 30 minutes after the start of the incubation period, ^14C-methylbenzoate was detected. The amount of ^14C-methylbenzoate increased rapidly during the following three successive collection periods, respectively, (the rate increasing during each successive period).
# Snapdragon Petals [8] = assay: as above; details: Time 240 min; 220 nCi applied
# [9] = Post-Spray 24 hours, 1 mg/ml sprayed to runoff
compound,measurement,setting,value
"O=C(O)c1ccccc1 [BA, benzoic acid]","Methylbenzoate emitted, percentage of amount emitted during the 24-hour period prior to harvest",Cut Snapdragon Flowers [1]; Day 1 after harvest,84%
same,"Myrcene emitted, percentage of amount emitted during the 24-hour period prior to harvest",Cut Snapdragon Flowers [1]; Day 1 after harvest,158%
same,"Ocimene emitted, percentage of amount emitted during the 24-hour period prior to harvest",Cut Snapdragon Flowers [1]; Day 1 after harvest,139%
same,Percentage amount of total floral scent emitted compared to the 24-hour period prior to harvest,Cut Snapdragon Flowers [1]; Day 1 after harvest,120^ %
same,"Methylbenzoate emitted, percentage of amount emitted during the 24-hour period prior to harvest",Cut Snapdragon Flowers [1]; Day 2 after harvest,91%
same,"Myrcene emitted, percentage of amount emitted during the 24-hour period prior to harvest",Cut Snapdragon Flowers [1]; Day 2 after harvest,142%
same,"Ocimene emitted, percentage of amount emitted during the 24-hour period prior to harvest",Cut Snapdragon Flowers [1]; Day 2 after harvest,122%
same,Percentage amount of total floral scent emitted compared to the 24-hour period prior to harvest,Cut Snapdragon Flowers [1]; Day 2 after harvest,114%
same,"Methylbenzoate emitted, percentage of amount emitted during the 24-hour period prior to harvest",Cut Snapdragon Flowers [1]; Day 3 after harvest,8%
same,"Myrcene emitted, percentage of amount emitted during the 24-hour period prior to harvest",Cut Snapdragon Flowers [1]; Day 3 after harvest,23%
same,"Ocimene emitted, percentage of amount emitted during the 24-hour period prior to harvest",Cut Snapdragon Flowers [1]; Day 3 after harvest,20%
same,Percentage amount of total floral scent emitted compared to the 24-hour period prior to harvest,Cut Snapdragon Flowers [1]; Day 3 after harvest,15%
same,"Methylbenzoate emitted, percentage of amount emitted during the 24-hour period prior to harvest",Cut Snapdragon Flowers [1]; Day 4 after harvest,4%
same,"Myrcene emitted, percentage of amount emitted during the 24-hour period prior to harvest",Cut Snapdragon Flowers [1]; Day 4 after harvest,26%
same,"Ocimene emitted, percentage of amount emitted during the 24-hour period prior to harvest",Cut Snapdragon Flowers [1]; Day 4 after harvest,18%
same,Percentage amount of total floral scent emitted compared to the 24-hour period prior to harvest,Cut Snapdragon Flowers [1]; Day 4 after harvest,16%
same,"Methylbenzoate emitted, percentage of amount emitted during the 24-hour period prior to harvest",Cut Snapdragon Flowers [1]; Day 5 after harvest,3%
same,"Myrcene emitted, percentage of amount emitted during the 24-hour period prior to harvest",Cut Snapdragon Flowers [1]; Day 5 after harvest,18%
same,"Ocimene emitted, percentage of amount emitted during the 24-hour period prior to harvest",Cut Snapdragon Flowers [1]; Day 5 after harvest,18%
same,Percentage amount of total floral scent emitted compared to the 24-hour period prior to harvest,Cut Snapdragon Flowers [1]; Day 5 after harvest,12%
same,membrane potential,[2],rapid and weak hyperpolarization
same,electrolyte leakage,[3],rapid increase in electrolyte leakage
same,phytotoxicity,"Potted Snapdragon Plant; 1 mg/ml spray, after 24 hours",evidence of phytotoxicity
same,"Methylbenzoate emitted, percentage of amount emitted during the 24-hour period prior to spraying",Potted Snapdragon Plant; [9],152%
same,"Myrcene emitted, percentage of amount emitted during the 24-hour period prior to spraying",Potted Snapdragon Plant; [9],52%
same,"Ocimene emitted, percentage of amount emitted during the 24-hour period prior to spraying",Potted Snapdragon Plant; [9],58%
same,"Total floral scent emitted, percentage of amount emitted during the 24-hour period prior to spraying",Potted Snapdragon Plant; [9],98%
same,contribution of the two monoterpenes to the overall floral scent,Potted Snapdragon Plant; after spraying 1 mg/ml (57% prior to spraying),33%
same,transcription of IS10a,IS10a,induce the transcription
"OC[C@H]1O[C@@](CO)(O[C@H]2O[C@H](CO)[C@@H](O)[C@H](O)[C@H]2O)[C@@H](O)[C@@H]1O [Sucrose, sucrose, reference compound]","Methylbenzoate emitted, percentage of amount emitted during the 24-hour period prior to harvest",Cut Snapdragon Flowers [1]; Day 1 after harvest,78%
same,"Myrcene emitted, percentage of amount emitted during the 24-hour period prior to harvest",Cut Snapdragon Flowers [1]; Day 1 after harvest,78%
same,"Ocimene emitted, percentage of amount emitted during the 24-hour period prior to harvest",Cut Snapdragon Flowers [1]; Day 1 after harvest,88%
same,Percentage amount of total floral scent emitted compared to the 24-hour period prior to harvest,Cut Snapdragon Flowers [1]; Day 1 after harvest,85^ %
same,"Methylbenzoate emitted, percentage of amount emitted during the 24-hour period prior to harvest",Cut Snapdragon Flowers [1]; Day 2 after harvest,30%
same,"Myrcene emitted, percentage of amount emitted during the 24-hour period prior to harvest",Cut Snapdragon Flowers [1]; Day 2 after harvest,55%
same,"Ocimene emitted, percentage of amount emitted during the 24-hour period prior to harvest",Cut Snapdragon Flowers [1]; Day 2 after harvest,58%
same,Percentage amount of total floral scent emitted compared to the 24-hour period prior to harvest,Cut Snapdragon Flowers [1]; Day 2 after harvest,48%
same,Percentage amount of methylbenzoate emitted compared to the 24-hour period prior to harvest,Petunia Cuttings; Day 1 after harvest,62^2%
same,Percentage amount of methylbenzoate emitted compared to the 24-hour period prior to harvest,Petunia Cuttings; Day 2 after harvest,76%
same,Percentage amount of methylbenzoate emitted compared to the 24-hour period prior to harvest,Petunia Cuttings; Day 3 after harvest,48%
same,Percentage amount of methylbenzoate emitted compared to the 24-hour period prior to harvest,Petunia Cuttings; Day 4 after harvest,33%
same,Percentage amount of methylbenzoate emitted compared to the 24-hour period prior to harvest,Petunia Cuttings; Day 5 after harvest (flowers senesced and collapsed),23%
same,Total Emission,Cut Snapdragon Flowers [4],30^1 Units of total floral scent
O=CC=Cc1ccccc1 [cinnamaldehyde],attraction of the beetle,spotted cucumber beetle,attracted
O=C(O)C=Cc1ccccc1 [cinnamic acid],electrolyte leakage,[3],rapid increase in electrolyte leakage
OCC=Cc1ccccc1 [cinnamyl alcohol],attraction of the beetle,spotted cucumber beetle,attracted
COC(=O)c1ccccc1 [methylbenzoate],EAG response,H. lineata moths,especially strong
O=C(O)c1ccccc1O [salicylic acid],time of exposure until leaf necrosis was observed,[5],> 5 days
same,time after exposure at which leaf necrosis was first noticeable,[6],≤ 2 days
^14C-benzoic acid,nanocuries of 14C-methylbenzoate from 14C-benzoic acid,"Snapdragon Petals [7]; Time 0 min, 500 nCi applied to ten lower lobes",0.030 nCi
same,nanocuries of 14C-methylbenzoate from 14C-benzoic acid,"Snapdragon Petals [7]; Time 30 min, 500 nCi applied",0.036 nCi
same,nanocuries of 14C-methylbenzoate from 14C-benzoic acid,"Snapdragon Petals [7]; Time 60 min, 500 nCi applied",0.354 nCi
same,nanocuries of 14C-methylbenzoate from 14C-benzoic acid,"Snapdragon Petals [7]; Time 120 min, 500 nCi applied",2.544 nCi
same,nanocuries of 14C-methylbenzoate from 14C-benzoic acid,"Snapdragon Petals [7]; Time 240 min, 500 nCi applied",13.226 nCi
^14C-phenylalanine,nanocuries of 14C-methylbenzoate from 14C-phenylalanine,Snapdragon Petals [7]; Time 0 min,0.295 nCi
same,nanocuries of 14C-methylbenzoate from 14C-phenylalanine,Snapdragon Petals [7]; Time 30 min,0.983 nCi
same,nanocuries of 14C-methylbenzoate from 14C-phenylalanine,Snapdragon Petals [7]; Time 60 min,1.874 nCi
same,nanocuries of 14C-methylbenzoate from 14C-phenylalanine,Snapdragon Petals [7]; Time 120 min,5.635 nCi
same,nanocuries of 14C-methylbenzoate from 14C-phenylalanine,Snapdragon Petals [8],25.387 nCi
